Results published in US7759345B2, “Antitumoral derivatives of ET-743” (priority 2001, dated 2010).

Key:
[1] = test system: P-388; assay: Inhibition of cell growth by counting cells, P-388; type: cell-based, mouse; conditions: Mus musculus, P388, 72 h; three days of incubation; read-out: IC50 (molar) P-388
In short: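 IC50 is the sample concentration halving growth, taken from dose-response curves of cell counts (Coulter counter, duplicate wells) relative to drug-free cultures. P-388 (DBA/2 mouse lymphoid neoplasm) cells plated at 1×10^4 per well in EMEM with 5% FCS plus test sample.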

[2] = test system: A-549; assay: Inhibition of cell growth by counting cells, A-549; type: cell-based, human; conditions: Homo sapiens, A549, 72 h; three days of incubation; read-out: IC50 (molar) A-549
In short: (§1)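 Growth inhibition by direct cell counting: exponentially growing cells treated 3 days with compound at 37° C; IC50 derived from dose-response of net cells per well.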

[3] = test system: HT-29; assay: Inhibition of cell growth by counting cells, HT-29; type: cell-based, human; conditions: Homo sapiens, HT-29, 72 h; three days of incubation; read-out: IC50 (molar) HT-29
In short: as §1

[4] = test system: MEL-28; assay: Inhibition of cell growth by counting cells, MEL-28; type: cell-based, human; conditions: Homo sapiens, SK-MEL-28, 72 h; three days of incubation; read-out: IC50 (molar) MEL-28
In short: as §1

[5] = test system: DU-145; assay: Inhibition of cell growth by counting cells, DU-145; type: cell-based, human; conditions: Homo sapiens, DU-145, 72 h; three days of incubation; read-out: IC50 (molar) DU-145
In short: as §1

[6] = test system: Liver
From the text: (§2) Toxicity was asssessed by the methods reported in Toxicology in Vitro, 15 (2001) 571-577, J. Luber Narod et al.: “Evaluation of the use of in vitro methodolodies as tools for screening new compounds for potential in vivo toxicity”.

[7] = test system: Heart
From the text: as §2

[8] = test system: Myelo
From the text: as §2

[9] = test system: Skeletal
From the text: as §2

[10] = test system: Kidney
From the text: as §2

Structure (SMILES) | IC50 [1] [nM] | IC50 [2] [nM] | IC50 [3] [nM] | IC50 [4] [nM] | IC50 [5] [nM] | Toxicity Data Liver [6] | Toxicity Data Heart [7] | Toxicity Data Myelo [8] | Toxicity Data Skeletal [9] | Toxicity Data Kidney [10]
CCCCCCCC(=O)Oc1cc2c(cc1OC)[C@@]1(CS[C@@H]3c4c(OC(C)=O)c(C)c5c(c4[C@H](COC1=O)N1C3[C@H]3c4c(cc(C)c(OC)c4O)C[C@@H]([C@@H]1O)N3C)OCO5)NCC2 (stereo partly drawn) [Compound 59] | 0.113 | 0.113 | 0.113 | 0.113 | 0.113 | 2.53E-08 | 8.14E-08 | 4.18E-08 | 1.46E-07 | 2.87E-08
COc1cc2c(cc1OC(=O)/C=C/c1ccccc1)CCN[C@]21CS[C@@H]2c3c(OC(C)=O)c(C)c4c(c3[C@H](COC1=O)N1C2[C@H]2c3c(cc(C)c(OC)c3O)C[C@@H]([C@@H]1O)N2C)OCO4 (stereo partly drawn) [Compound 61] | 0.112 | 0.112 | 0.112 | 0.112 | 0.112 | 1.32E-08 | 2.76E-08 | 1.69E-08 | 1.47E-08 | 5.12E-09
C=CCOC(=O)Oc1cc2c(cc1OC)[C@@]1(CS[C@@H]3c4c(OC(C)=O)c(C)c5c(c4[C@H](COC1=O)N1C3[C@H]3c4c(cc(C)c(OC)c4O)C[C@@H]([C@@H]1O)N3C)OCO5)NCC2 (stereo partly drawn) [Compound 64] | 0.118 | 0.592 | 0.592 | 0.592 |  | 2.57E-08 | 5.50E-08 | 1.93E-08 | 1.66E-09 | 1.77E-08
COc1cc2c(cc1OC(=O)OCc1ccccc1)CCN[C@]21CS[C@@H]2c3c(OC(C)=O)c(C)c4c(c3[C@H](COC1=O)N1C2[C@H]2c3c(cc(C)c(OC)c3O)C[C@@H]([C@@H]1O)N2C)OCO4 (stereo partly drawn) [Compound 65] | 0.112 | 0.112 | 0.112 | 0.112 | 0.112 | 5.30E-09 | 9.00E-09 | 1.70E-08 | 3.77E-09 | 3.15E-09
CCOc1cc2c(cc1OC)[C@@]1(CS[C@@H]3c4c(OC(C)=O)c(C)c5c(c4[C@H](COC1=O)N1C3[C@H]3c4c(cc(C)c(OC)c4O)C[C@@H]([C@@H]1O)N3C)OCO5)NCC2 (stereo partly drawn) [Compound 68] |  | 0.633 | 0.633 |  |  | 1.76E-08 | 1.13E-08 | 1.89E-08 | 1.27E-08 | 5.10E-09
C=CCOc1cc2c(cc1OC)[C@@]1(CS[C@@H]3c4c(OC(C)=O)c(C)c5c(c4[C@H](COC1=O)N1C3[C@H]3c4c(cc(C)c(OC)c4O)C[C@@H]([C@@H]1O)N3C)OCO5)NCC2 (stereo partly drawn) [Compound 70] | 0.125 | 0.125 | 0.125 | 0.125 | 0.125 | 3.16E-08 | 2.20E-07 | 6.61E-08 | 3.67E-08 | 1.07E-07
COc1cc2c(cc1OC(=O)[C@H](C)NC(=O)OC(C)(C)C)CCN[C@]21CS[C@@H]2c3c(OC(C)=O)c(C)c4c(c3[C@H](COC1=O)N1C2[C@H]2c3c(cc(C)c(OC)c3O)C[C@@H]([C@@H]1O)N2C)OCO4 (stereo partly drawn) [Compound 79] |  | 0.107 | 0.107 |  |  | 2.28E-08 | 3.46E-08 | 1.35E-08 | 2.75E-09 | 1.74E-08
COc1cc2c(cc1OC(=O)OC(C)(C)C)CCN[C@]21CS[C@@H]2c3c(OC(C)=O)c(C)c4c(c3[C@H](COC1=O)N1C2[C@H]2c3c(cc(C)c(OC)c3OC(=O)OC(C)(C)C)C[C@@H]([C@@H]1O)N2C)OCO4 (stereo partly drawn) [Compound 86] | 0.52 | 0.52 | 0.52 | 0.52 | 0.52 | 1.47E-08 | 8.16E-08 | 8.35E-08 | 3.88E-08 | 1.37E-08
CCN1CCc2cc(O)c(OC)cc2[C@@]12CS[C@@H]1c3c(OC(C)=O)c(C)c4c(c3[C@H](COC2=O)N2C1[C@H]1c3c(cc(C)c(OC)c3O)C[C@@H]([C@@H]2O)N1C)OCO4 (stereo partly drawn) [Compound 94] | 0.152 | 0.152 | 0.152 | 0.152 |  | 1.24E-08 | 6.66E-08 | 1.13E-08 | 1.44E-09 | 3.49E-09
COc1cc2c(cc1O)CCN[C@]21CS[C@@H]2c3c(OC(C)=O)c(C)c4c(c3[C@H](COC1=O)N1C2[C@H]2c3c(cc(C)c(OC)c3OC)C[C@@H]([C@@H]1O)N2C)OCO4 (stereo partly drawn) [Compound 98] |  | 0.129 | 0.129 |  |  | 4.21E-08 | 4.98E-08 | 3.79E-08 | 1.24E-08 | 1.08E-06
COc1cc2c(cc1OC(=O)C(F)(F)F)CCN[C@]21CS[C@@H]2c3c(OC(C)=O)c(C)c4c(c3[C@H](COC1=O)N1C2[C@H]2c3c(cc(C)c(OC)c3O)C[C@@H]([C@@H]1O)N2C)OCO4 (stereo partly drawn) [Compound 104] | 0.117 | 0.583 | 0.583 | 0.583 | 0.583 | 4.16E-09 | 3.44E-09 | 1.93E-08 | 4.10E-07 | 2.67E-09
COc1cc2c(cc1O)CCN[C@]21CS[C@@H]2c3c(OC(=O)/C=C/c4ccccc4)c(C)c4c(c3[C@H](COC1=O)N1C2[C@H]2c3c(cc(C)c(OC)c3O)C[C@@H]([C@@H]1O)N2C)OCO4 (stereo partly drawn) [Compound 161] | 0.118 | 0.118 | 0.118 | 0.118 | 0.118 | 8.58E-09 | 1.13E-08 | 2.27E-08 | 1.65E-08 | 2.60E-09
C=CCOc1c(C)c2c(c3c1[C@H]1SC[C@]4(NCCc5cc(O)c(OC)cc54)C(=O)OC[C@@H]3N3C1[C@H]1c4c(cc(C)c(OC)c4O)C[C@@H]([C@@H]3O)N1C)OCO2 (stereo partly drawn) [Compound 183] |  | 0.132 | 0.132 |  |  | 3.03E-08 | 3.72E-08 | 2.39E-08 | 2.67E-08 | 6.72E-03
CCCCCCCC(=O)Oc1cc2c(cc1OC)[C@@]1(CS[C@@H]3c4c(OC(C)=O)c(C)c5c(c4[C@H](COC1=O)N1C3[C@@H]3N[C@@H](Cc4cc(C)c(OC)c(O)c43)[C@@H]1O)OCO5)NCC2 (stereo partly drawn) [Compound 213] |  | 0.114 | 0.114 |  |  | 3.93E-08 | 1.82E-07 | 2.70E-08 | 1.72E-07 | 1.48E-08
